This passage reports IC50 results from ChEMBL document CHEMBL3797179, “Probing for improved selectivity with dipeptide-derived inhibitors of dipeptidyl peptidases 8 and 9: the impact of P1-variation” (Medchemcomm, 2016).

Where only a bound is given, the exact number is not on record here.

Experiment [1] in a line: Inhibition of bovine testes DPP9 using Ala-Pro-p-nitroanilide as substrate preincubated for 15 mins followed by substrate addition measured for 10 mins by […]. The arrangement: species or system Bos taurus.
Another experiment concerns the target T1, Prolyl endopeptidase FAP (Mus musculus, UniProt P97321).
T1 sequence (P97321 whole entry): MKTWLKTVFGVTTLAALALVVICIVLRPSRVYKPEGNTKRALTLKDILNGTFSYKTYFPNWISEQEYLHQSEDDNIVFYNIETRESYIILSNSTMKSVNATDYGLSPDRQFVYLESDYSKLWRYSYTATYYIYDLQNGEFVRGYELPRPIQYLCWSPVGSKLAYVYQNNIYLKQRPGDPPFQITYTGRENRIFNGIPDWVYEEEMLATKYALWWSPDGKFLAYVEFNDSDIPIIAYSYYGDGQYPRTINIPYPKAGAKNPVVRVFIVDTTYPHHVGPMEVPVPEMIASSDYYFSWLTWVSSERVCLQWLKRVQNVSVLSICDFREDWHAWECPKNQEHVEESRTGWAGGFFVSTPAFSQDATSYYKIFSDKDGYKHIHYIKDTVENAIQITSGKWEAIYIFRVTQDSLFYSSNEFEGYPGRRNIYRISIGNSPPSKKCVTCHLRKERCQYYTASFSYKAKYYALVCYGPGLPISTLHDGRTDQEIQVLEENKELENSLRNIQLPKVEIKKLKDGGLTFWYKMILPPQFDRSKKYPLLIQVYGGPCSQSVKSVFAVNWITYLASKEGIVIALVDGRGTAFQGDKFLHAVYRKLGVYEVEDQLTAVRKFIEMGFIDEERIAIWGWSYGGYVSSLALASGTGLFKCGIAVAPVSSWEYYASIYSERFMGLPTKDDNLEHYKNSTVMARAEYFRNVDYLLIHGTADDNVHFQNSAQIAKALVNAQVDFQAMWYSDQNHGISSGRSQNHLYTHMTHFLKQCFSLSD
The experiment can be described thus: Inhibition of BALB/c mouse 5'-His6-tagged 3'-FLAG-tagged FAP fused with ECD expressed in HEK293 cells using Ala-Pro-p-nitroanilide as substrate preincubated for 15 mins followed by substrate addition measured for 10 mins by […]. It counts as cell-based.

Another experiment addresses Dipeptidyl peptidase 2 (Homo sapiens, UniProt Q9UHL4). The experiment can be described thus: Inhibition of DPP2 in human seminal plasma using Lys-Ala-p-nitroanilide as substrate preincubated for 15 mins followed by substrate addition measured for 10 mins by […]. It counts as cell-free.
The target of a further experiment is Dipeptidyl peptidase 8 (Homo sapiens, UniProt Q6V1X1). Description: Inhibition of full length human DPP8 expressed in baculovirus infected sf9 cells using Ala-Pro-p-nitroanilide as substrate preincubated for 15 mins followed by substrate addition measured for 10 mins by […].
Another experiment addresses Dipeptidyl peptidase 4 (Homo sapiens, UniProt P27487). Description: Inhibition of DPP4 in human seminal plasma using Gly-Pro-p-nitroanilide as substrate preincubated for 15 mins followed by substrate addition measured for 10 mins by […]. The format is cell-free.

Sequence of Dipeptidyl peptidase 8 (Q6V1X1 whole entry): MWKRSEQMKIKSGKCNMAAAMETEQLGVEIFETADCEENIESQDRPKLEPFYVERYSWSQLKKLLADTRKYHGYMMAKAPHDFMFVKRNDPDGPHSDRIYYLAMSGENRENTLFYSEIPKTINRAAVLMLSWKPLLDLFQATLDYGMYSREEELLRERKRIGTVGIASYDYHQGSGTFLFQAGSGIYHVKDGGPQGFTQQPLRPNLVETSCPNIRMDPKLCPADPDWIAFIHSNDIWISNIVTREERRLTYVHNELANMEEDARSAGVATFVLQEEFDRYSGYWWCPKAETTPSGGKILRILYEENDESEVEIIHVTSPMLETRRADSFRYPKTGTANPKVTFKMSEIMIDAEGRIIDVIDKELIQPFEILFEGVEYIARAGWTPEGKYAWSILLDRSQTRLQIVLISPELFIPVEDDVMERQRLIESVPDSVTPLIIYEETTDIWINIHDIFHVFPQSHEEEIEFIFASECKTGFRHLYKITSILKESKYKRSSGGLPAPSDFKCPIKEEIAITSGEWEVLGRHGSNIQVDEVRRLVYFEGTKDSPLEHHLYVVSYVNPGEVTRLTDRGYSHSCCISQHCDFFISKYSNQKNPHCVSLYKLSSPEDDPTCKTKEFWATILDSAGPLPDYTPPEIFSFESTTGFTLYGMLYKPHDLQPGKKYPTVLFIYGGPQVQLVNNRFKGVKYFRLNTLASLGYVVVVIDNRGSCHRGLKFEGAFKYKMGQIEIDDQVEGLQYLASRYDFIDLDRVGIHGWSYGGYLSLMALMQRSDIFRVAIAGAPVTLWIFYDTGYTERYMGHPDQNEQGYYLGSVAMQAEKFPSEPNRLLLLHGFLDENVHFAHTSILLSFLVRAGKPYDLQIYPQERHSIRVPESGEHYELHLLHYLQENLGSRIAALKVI
Sequence of Dipeptidyl peptidase 4 (P27487 whole entry): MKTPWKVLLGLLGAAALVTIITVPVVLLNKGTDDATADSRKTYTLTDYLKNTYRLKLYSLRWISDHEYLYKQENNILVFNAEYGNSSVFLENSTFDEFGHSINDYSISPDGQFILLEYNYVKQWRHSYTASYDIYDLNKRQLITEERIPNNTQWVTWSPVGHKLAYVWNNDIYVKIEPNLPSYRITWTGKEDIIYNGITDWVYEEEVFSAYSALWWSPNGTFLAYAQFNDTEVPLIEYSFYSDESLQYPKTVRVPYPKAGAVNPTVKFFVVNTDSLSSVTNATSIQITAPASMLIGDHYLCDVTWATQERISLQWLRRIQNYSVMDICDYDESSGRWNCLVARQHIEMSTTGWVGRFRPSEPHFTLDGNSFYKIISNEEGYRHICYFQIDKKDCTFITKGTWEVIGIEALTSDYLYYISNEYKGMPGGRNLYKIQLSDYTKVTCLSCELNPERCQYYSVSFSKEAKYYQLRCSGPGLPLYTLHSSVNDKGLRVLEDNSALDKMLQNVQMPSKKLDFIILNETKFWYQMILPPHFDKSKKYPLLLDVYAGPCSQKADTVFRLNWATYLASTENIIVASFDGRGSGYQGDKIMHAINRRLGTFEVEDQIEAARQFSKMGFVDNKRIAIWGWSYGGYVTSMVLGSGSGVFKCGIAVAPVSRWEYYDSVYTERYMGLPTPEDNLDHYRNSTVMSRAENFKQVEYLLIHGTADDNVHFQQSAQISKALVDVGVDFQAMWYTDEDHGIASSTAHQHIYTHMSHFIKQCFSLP

In general, IC50 refers to the point on the concentration scale where inhibition reaches its midpoint. A low value points to greater potency. In experiment [1], `N[C@@H](CC(=O)N1CCN(C(c2ccc(F)cc2)c2ccc(F)cc2)CC1)C(=O)N1Cc2conc2C1` came in with an IC50 of 2.4 µM. The same measure, in the same setting: in the case of `C[C@H]1C[C@@H](C#N)N(C(=O)[C@@H](N)CC(=O)N2CCN(C(c3ccc(F)cc3)c3ccc(F)cc3)CC2)C1` it was 0.012 µM. As to `CCC1CCN(C(=O)[C@@H](N)CC(=O)N2CCN(C(c3ccc(F)cc3)c3ccc(F)cc3)CC2)C1` (stereo partly specified), the IC50 was > 100 µM against Prolyl endopeptidase FAP and 0.36 µM in experiment [1]. In experiment [1], `CCC1CCN(C(=O)[C@@H](N)[C@H](C)CC)C1` (stereo partly specified) had an IC50 of 5.7 µM. With `N[C@@H](CC(=O)N1CCN(C(c2ccc(F)cc2)c2ccc(F)cc2)CC1)C(=O)N1Cc2cn[nH]c2C1`, the IC50 against Dipeptidyl peptidase 2 was > 100 µM; in experiment [1], > 25 µM; at Dipeptidyl peptidase 8, > 100 µM.

`N#C[C@@H]1[C@@H]2C[C@@H]2CN1C(=O)[C@@H](N)CC(=O)N1CCN(C(c2ccc(F)cc2)c2ccc(F)cc2)CC1` showed an IC50 in experiment [1] of 0.0218 µM. That is a double-digit nanomolar value.

In the case of `C=C1C[C@@H](C#N)N(C(=O)[C@@H](N)CC(=O)N2CCN(C(c3ccc(F)cc3)c3ccc(F)cc3)CC2)C1`, in experiment [1], 0.083 µM corresponded to half-maximal inhibition (IC50). Compared with the last compound, the IC50 is about 3.8-fold higher. On to `Cc1nc2c(s1)CN(C(=O)[C@@H](N)CC(=O)N1CCN(C(c3ccc(F)cc3)c3ccc(F)cc3)CC1)C2`, for which the IC50 against Dipeptidyl peptidase 2 is > 100 µM; in experiment [1] it was 30 µM. With `CC1CCN(C(=O)[C@@H](N)CC(=O)N2CCN(C(c3ccc(F)cc3)c3ccc(F)cc3)CC2)C1` (stereo partly specified), the values for the IC50 (against Prolyl endopeptidase FAP; in experiment [1]) were > 100 µM and 0.17 µM, respectively. Take `CC[C@@H](C)[C@H](N)C(=O)N1Cc2ccccc2C1`: at Prolyl endopeptidase FAP, the IC50 was > 100 µM. As for `N#C[C@@H]1C[C@H](N=[N+]=[N-])CN1C(=O)[C@@H](N)CC(=O)N1CCN(C(c2ccc(F)cc2)c2ccc(F)cc2)CC1`, the IC50 on Dipeptidyl peptidase 2 is > 25 µM; in experiment [1] it was 0.23 µM. As for `N[C@@H](CC(=O)N1CCN(C(c2ccc(F)cc2)c2ccc(F)cc2)CC1)C(=O)N1CCC(C(F)(F)F)C1` (stereo partly specified), in experiment [1], the IC50 turned out to be 3.5 µM. This counts as single-digit micromolar.

As to `CC[C@@H](C)[C@H](N)C(=O)N1Cc2cn[nH]c2C1`, the IC50 (on Dipeptidyl peptidase 2; in experiment [1]; at Dipeptidyl peptidase 8) was > 100 µM in each case. For the compound `C=C1CCN(C(=O)[C@@H](N)[C@H](C)CC)C1`, the IC50 on Dipeptidyl peptidase 2 is > 100 µM; in experiment [1], 16 µM; at Dipeptidyl peptidase 4 it was > 50 µM. As to `N[C@@H](CC(=O)N1CCN(C(c2ccc(F)cc2)c2ccc(F)cc2)CC1)C(=O)N1Cc2ccccc2C1`, the IC50 on Prolyl endopeptidase FAP was > 100 µM; in experiment [1], 0.084 µM. Regarding `C=C1CCN(C(=O)[C@@H](N)CC(=O)N2CCN(C(c3ccc(F)cc3)c3ccc(F)cc3)CC2)C1`, the IC50 on Dipeptidyl peptidase 2 was > 100 µM; in experiment [1] it was 0.41 µM.

As to `CC[C@@H](C)[C@H](N)C(=O)N1C[C@@H](N=[N+]=[N-])C[C@H]1C#N`, on Prolyl endopeptidase FAP, the IC50 was > 100 µM.

In turn, `CC[C@@H](C)[C@H](N)C(=O)N1CCC(C)C1` (stereo partly specified) showed an IC50 in experiment [1] of 4.7 µM.

On to `CC[C@@H](C)[C@H](N)C(=O)N1Cc2nc(C)sc2C1`, for which the IC50 is > 100 µM at Dipeptidyl peptidase 2, > 100 µM in experiment [1] and > 25 µM against Dipeptidyl peptidase 8. As to `CC[C@@H](C)[C@H](N)C(=O)N1C[C@H]2C[C@H]2[C@H]1C#N`, the IC50 at Dipeptidyl peptidase 2 was > 100 µM; in experiment [1], 2.84 µM. For `CC[C@@H](C)[C@H](N)C(=O)N1Cc2conc2C1`, half-maximal inhibition in experiment [1] (IC50) required 42 µM.
